Consider eight compounds from PubChem BioAssay (NCI).

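Test compounds were applied to cells in 96-well plates for 48 hours at 5 doses. At the GI50, growth is halved. TGI is the concentration that stops growth completely.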

Some test systems named below: PC-3 prostate; HL-60(TB) leukemia; EKVX NSCLC; HOP-62 NSCLC; DU-145 prostate; 786-0 renal; HCT-116 colon; T-47D breast; SF-539 CNS; BT-549 breast.
Common to all, as to experiment: DTP human tumour cell line panel, 48 h

By GI50 is commonly meant the concentration that inhibits growth by half. Usually TGI stands for the concentration at which net growth stops. With `Cc1ccc(C(=O)Nc2ccc(CN3CCN(C)CC3)c(C(F)(F)F)c2)cc1C#Cc1cncc2ncccc12`, the GI50 with PC-3 prostate is 3.15 µM; with HL-60(TB) leukemia, 0.282 µM; in the assay with EKVX NSCLC, 1.12 µM; with HOP-62 NSCLC, 0.474 µM; with DU-145 prostate, 0.388 µM; with 786-0 renal, 0.48 µM. Further, the concentration for 50% growth inhibition (GI50) in the assay with HCT-116 colon was 0.274 µM; in the assay on T-47D breast, 1.58 µM; with SF-539 CNS, 0.42 µM; with BT-549 breast, 2.33 µM. In addition, the TGI in the assay on PC-3 prostate was found to be 21.4 µM; in the assay with HL-60(TB) leukemia it was 1.61 µM; in the assay on EKVX NSCLC, 16.7 µM; in the assay with HOP-62 NSCLC, 6.07 µM; in the assay on DU-145 prostate it was 1.53 µM; in the assay with 786-0 renal, 1.94 µM. For the same compound, the TGI with HCT-116 colon came out at 3.87 µM; in the assay on T-47D breast it was 21.1 µM; in the assay with SF-539 CNS, 1.55 µM; in the assay on BT-549 breast it was 12.6 µM.
As to `COc1ccc(-c2nnc3n(C)c(=O)c4ccccc4n23)cc1O`, the GI50 is 0.611 µM with PC-3 prostate; 0.13 µM with HL-60(TB) leukemia; 14.1 µM with EKVX NSCLC; 0.176 µM with HOP-62 NSCLC; 2.22 µM with DU-145 prostate; 2.57 µM in the assay on 786-0 renal. Further, the 50% growth inhibitory concentration (GI50) in the assay with HCT-116 colon was 0.161 µM; with T-47D breast, 2.41 µM; with SF-539 CNS, 0.596 µM; in the assay with BT-549 breast, 2.91 µM. The TGI in the assay on PC-3 prostate is > 100 µM; with HL-60(TB) leukemia it was 1.32 µM; in the assay with EKVX NSCLC, > 100 µM; in the assay with HOP-62 NSCLC it was 19.8 µM; with DU-145 prostate it was > 100 µM; with 786-0 renal, 28 µM. In addition, the TGI is > 50.3 µM in the assay on HCT-116 colon, > 100 µM with T-47D breast, 6.68 µM with SF-539 CNS and > 100 µM in the assay on BT-549 breast.
In the case of `O=C1C2C(C(=O)[N]1[Hg][c]1ccccc1)C1(Cl)C(Cl)=C(Cl)C2(Cl)C1(Cl)Cl` (centres undefined), the GI50 was 6.42 µM in the assay on PC-3 prostate; 2.51 µM with HL-60(TB) leukemia; 6.91 µM with EKVX NSCLC; 6.21 µM in the assay on HOP-62 NSCLC; 1.66 µM in the assay with DU-145 prostate; 1.85 µM in the assay on 786-0 renal. Also, the GI50 in the assay with HCT-116 colon was 1.54 µM; in the assay with T-47D breast it was 0.225 µM; in the assay with BT-549 breast, 1.2 µM. Moreover, the TGI with PC-3 prostate was found to be 23.7 µM; with HL-60(TB) leukemia, 8.77 µM; in the assay on EKVX NSCLC it was 25.2 µM; in the assay on HOP-62 NSCLC, 19.2 µM; with DU-145 prostate it was 3.29 µM; with 786-0 renal, 3.48 µM. Moreover, the figures for the TGI in the assay on HCT-116 colon, with T-47D breast and in the assay with BT-549 breast were 2.87 µM, 1.58 µM and 2.49 µM, respectively.
Turning to `COC(=O)Nc1nc2c(OC)c(OC)c(OC)cc2[nH]1`, the GI50 with PC-3 prostate is 24.2 µM; in the assay on HL-60(TB) leukemia, 6.33 µM; in the assay on HOP-62 NSCLC it was 33.5 µM; with DU-145 prostate it was 32 µM; with 786-0 renal it was 66.4 µM; with HCT-116 colon, 10.1 µM. The GI50 is 33.2 µM with T-47D breast, 18.6 µM in the assay on SF-539 CNS and 50.4 µM in the assay with BT-549 breast. The TGI with PC-3 prostate is > 100 µM; with HL-60(TB) leukemia, > 89.5 µM; with HOP-62 NSCLC, > 100 µM; with DU-145 prostate, > 100 µM; in the assay with 786-0 renal it was > 100 µM; in the assay on HCT-116 colon, > 100 µM. For the same compound, the TGI in the assay on T-47D breast was > 100 µM; in the assay on SF-539 CNS it was 73.3 µM; in the assay with BT-549 breast it was > 100 µM.
Turning to `COc1ccc(/C=C/c2nc(N3CCOCC3)c3cc(F)c(F)cc3n2)cc1OC`, the GI50 is 2.66 µM in the assay with PC-3 prostate; 4 µM in the assay with HL-60(TB) leukemia; 50.7 µM with HOP-62 NSCLC; 8.79 µM in the assay with DU-145 prostate; 4.44 µM in the assay with 786-0 renal; 3.53 µM with HCT-116 colon. Further, the GI50 is 1.49 µM in the assay with T-47D breast, > 100 µM with SF-539 CNS and 2.83 µM with BT-549 breast. Further, the TGI with PC-3 prostate was 33.9 µM; in the assay on HL-60(TB) leukemia, > 100 µM; with HOP-62 NSCLC it was > 100 µM; in the assay on DU-145 prostate, > 100 µM; in the assay on 786-0 renal it was > 100 µM; in the assay with HCT-116 colon it was > 100 µM. Besides, the concentration for total growth inhibition (TGI) in the assay on T-47D breast was 9.72 µM; with SF-539 CNS it was > 100 µM; in the assay on BT-549 breast, 19.8 µM.
`COc1cc(C/C=C/c2ccccc2)c(OC)cc1O`: the TGI with PC-3 prostate came to 67.2 µM; in the assay with HL-60(TB) leukemia, 59.9 µM; in the assay with EKVX NSCLC, 33.3 µM; with DU-145 prostate it was 37.3 µM; in the assay with 786-0 renal it was 27.7 µM; in the assay with HCT-116 colon it was 31.1 µM. The TGI in the assay on T-47D breast came out at 35.3 µM; in the assay with SF-539 CNS, 37.6 µM; in the assay on BT-549 breast, 58.4 µM.
For the compound `COc1cc(Nc2ncc3c(n2)-c2ccc(Cl)cc2C(c2c(F)cccc2OC)=NC3)ccc1C(=O)O`, the GI50 is 7.87 µM in the assay on PC-3 prostate; 16.5 µM in the assay on HL-60(TB) leukemia; 13.1 µM in the assay with EKVX NSCLC; 5.08 µM in the assay with HOP-62 NSCLC; 17.6 µM with DU-145 prostate; 4.4 µM in the assay on 786-0 renal. Also, the values for the GI50 with T-47D breast, in the assay on SF-539 CNS and with BT-549 breast were 12.1 µM, 0.503 µM and 5.88 µM, respectively. Also, the concentration for total growth inhibition (TGI) in the assay on PC-3 prostate was 70.4 µM; in the assay with HL-60(TB) leukemia, > 68 µM; with EKVX NSCLC it was 69.1 µM; with HOP-62 NSCLC it was 58.5 µM; in the assay on DU-145 prostate it was > 87.5 µM; with 786-0 renal it was > 83.6 µM. The TGI in the assay with T-47D breast is > 91.2 µM; in the assay with SF-539 CNS, 20 µM; in the assay with BT-549 breast, > 81.1 µM.
As to `CC(=O)NNC(=O)c1nn(-c2ccc(Cl)cc2)cc1OC(C)=O`, the GI50 in the assay with PC-3 prostate was 5.07 µM; in the assay on EKVX NSCLC, 23.7 µM; in the assay with HOP-62 NSCLC, 27.2 µM; with DU-145 prostate, 18.7 µM; in the assay on 786-0 renal it was 14.4 µM; in the assay on HCT-116 colon, 14.6 µM. Moreover, the GI50 in the assay on T-47D breast was 13.7 µM; with SF-539 CNS, 21.9 µM; with BT-549 breast, 28.8 µM. In addition, the TGI in the assay with PC-3 prostate was > 25 µM; in the assay with EKVX NSCLC it was > 100 µM; in the assay on HOP-62 NSCLC it was > 100 µM; in the assay on DU-145 prostate, > 100 µM; in the assay on 786-0 renal, > 100 µM; in the assay with HCT-116 colon it was > 100 µM. In addition, the concentration for total growth inhibition (TGI) was 94.6 µM with T-47D breast, > 100 µM in the assay on SF-539 CNS and > 100 µM with BT-549 breast.
